Measurements reported in article PMC12203311, “Design, synthesis, in silico and in vitro evaluation of pyrrole–indole hybrids as dual tubulin and aromatase inhibitors with potent anticancer activities” (RSC Advances, 2025).
Like-named read-outs stand apart in the source and are kept apart here.

What was measured:
MOLT-4 = assay: NCI60 five-dose screen; type: cell-based; settings: Homo sapiens, MOLT-4, leukemia; for CC50: read-out: LC50 (the source's name)
SR = assay: NCI60 five-dose screen; type: cell-based; settings: Homo sapiens, leukemia
NCI-H322M = assay: NCI60 five-dose screen; type: cell-based; settings: Homo sapiens, NSC lung cancer; for CC50: read-out: LC50 (the source's name)
HCT-116 = assay: NCI60 five-dose screen; type: cell-based; settings: Homo sapiens, HCT-116, colon cancer; for CC50: read-out: LC50 (the source's name)
KM12 = assay: NCI60 five-dose screen; type: cell-based; settings: Homo sapiens, KM12, colon cancer; for CC50: read-out: LC50 (the source's name)
SNB-75 = assay: NCI60 five-dose screen; type: cell-based; settings: Homo sapiens, SNB-75, CNS cancer; for CC50: read-out: LC50 (the source's name)
U251 = assay: NCI60 five-dose screen; type: cell-based; settings: Homo sapiens, U-251, U251, CNS cancer; for CC50: read-out: LC50 (the source's name)
SK-MEL-5 = assay: NCI60 five-dose screen; type: cell-based, human; settings: for CC50: read-out: LC50 (the source's name)
IGROV1 = assay: NCI60 five-dose screen; type: cell-based; settings: Homo sapiens, IGROV-1; IGROV1, ovarian cancer
OVCAR-4 = assay: NCI60 five-dose screen; type: cell-based; settings: Homo sapiens, OVCAR-4, ovarian cancer; for CC50: read-out: LC50 (the source's name)
HS 578T = assay: NCI60 five-dose screen; type: cell-based; settings: Homo sapiens, breast cancer; for CC50: read-out: LC50 (the source's name)
[1] = tested on: NCI60 human cancer cell line panel; assay: NCI60 five-dose screen, ranges over the panel; type: cell-based; settings: for GI50: five-dose experiment, all cell lines, read-out: GI50 values (range over the panel)
porcine brain tubulin = molecular target: T1, porcine brain tubulin (Sus scrofa, UniProt P02550+P02554); assay: Tubulin polymerisation assay (fluorescence-based); type: biochemical; settings: 10 µM, 37 °C
T1 construct: a solution containing porcine brain tubulin (2 mg mL^−1); purchased Cytoskeleton BK011P; host or cells: porcine brain (tissue-purified)
Protocol: The tubulin polymerisation experimental protocol followed the method described in this literature.[28] The experimental was using fluorescence-based assay kit (Cytoskeleton, catalog no. BK011P). In Brief, 5 µL of test compounds was added to a 96-well plate, then mix with 50 µL of a solution containing porcine brain tubulin (2 mg mL^−1) in buffer with 20% glycerol and 1 mM GTP. A microplate reader (Varioskan™ LUX multimode microplate reader, Thermo Scientific™) was used to measure fluorescence intensity every 60 seconds for 60 minutes, with excitation at 360 nm and emission at 450 nm, maintained at 37 °C throughout the experiment.

[2] = Homo sapiens, SK-MEL-5, SK-MEL-5, melanoma
[3] = Homo sapiens, SK-MEL-5, melanoma

T1 sequence (P02554 whole entry): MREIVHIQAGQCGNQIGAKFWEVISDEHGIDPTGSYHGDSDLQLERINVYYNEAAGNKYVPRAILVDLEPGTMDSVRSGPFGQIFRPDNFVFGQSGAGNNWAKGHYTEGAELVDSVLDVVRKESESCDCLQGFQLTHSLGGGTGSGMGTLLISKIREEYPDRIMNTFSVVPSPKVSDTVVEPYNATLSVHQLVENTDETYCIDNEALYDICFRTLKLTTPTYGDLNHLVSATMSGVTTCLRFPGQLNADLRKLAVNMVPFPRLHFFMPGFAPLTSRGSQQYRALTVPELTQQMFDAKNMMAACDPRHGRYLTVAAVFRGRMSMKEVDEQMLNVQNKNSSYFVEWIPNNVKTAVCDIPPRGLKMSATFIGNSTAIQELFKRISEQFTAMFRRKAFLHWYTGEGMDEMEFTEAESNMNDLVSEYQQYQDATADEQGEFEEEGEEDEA
T1 sequence (P02550 whole entry): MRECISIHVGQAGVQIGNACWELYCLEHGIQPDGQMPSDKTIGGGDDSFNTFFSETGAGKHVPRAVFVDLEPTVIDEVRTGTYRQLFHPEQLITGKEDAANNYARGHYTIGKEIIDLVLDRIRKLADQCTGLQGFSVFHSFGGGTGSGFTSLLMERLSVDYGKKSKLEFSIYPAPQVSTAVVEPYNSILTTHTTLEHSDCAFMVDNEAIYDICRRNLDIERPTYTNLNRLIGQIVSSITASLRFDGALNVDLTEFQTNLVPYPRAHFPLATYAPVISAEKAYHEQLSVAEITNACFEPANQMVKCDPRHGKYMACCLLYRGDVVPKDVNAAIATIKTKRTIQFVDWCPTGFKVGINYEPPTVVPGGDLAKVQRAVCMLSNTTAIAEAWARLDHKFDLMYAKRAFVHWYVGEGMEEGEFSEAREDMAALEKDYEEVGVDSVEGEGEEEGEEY

Row | SMILES | GI50 (MOLT-4) | GI50 (NCI-H322M) | CC50 (NCI-H322M) | GI50 (HCT-116) | CC50 (HCT-116) | GI50 (KM12) | CC50 (KM12) | GI50 (SNB-75) | CC50 (SNB-75) | GI50 (U251) | CC50 (U251) | CC50 (SK-MEL-5; [2]) | GI50 (SK-MEL-5; [3]) | GI50 (IGROV1) | GI50 (OVCAR-4) | CC50 (OVCAR-4) | GI50 (HS 578T) | CC50 (HS 578T) | CC50 (MOLT-4) | GI50 [1] | further results
1 | O=C(N/N=C/c1cc(Cl)c[nH]1)c1[nH]c2ccc(Br)cc2c1-c1ccccc1 [Derivative 3h, (E)-5-Bromo-N′-((4-chloro-1H-pyrrol-2-yl)methylene)-3-phenyl-1H-indole-2-carbohydrazide] | 0.283 µM | 0.768 µM | 92.3 µM | 0.331 µM | 29.1 µM | 0.328 µM | 20.7 µM | 0.247 µM | 75.5 µM | 0.349 µM | 24.9 µM | 3.08 µM | 0.228 µM | 0.538 µM | 0.555 µM | 34.1 µM | 0.284 µM | > 100 µM |  |  | GI50 (SR): 0.179 µM; CC50 (SR; read-out: LC50 (the source's name)): 4.6 µM; CC50 ([1]; HL-60 (TB), K-562, SR, NCI-H460, COLO 205, HCC-2998, HT29, SK-MEL-5, OVCAR-8, read-out: LC50 values (range over named cell lines)): 0.8 to 7.2 µM; RFU in tubulin polymerization assay (porcine brain tubulin): ~40 arbitrary units
2 | O=C(N/N=C/c1cc(Br)c(Br)[nH]1)c1[nH]c2ccc(Br)cc2c1-c1ccccc1 [Derivative 3f, (E)-5-Bromo-N′-((4,5-dibromo-1H-pyrrol-2-yl)methylene)-3-phenyl-1H-indole-2-carbohydrazide] | 3.38 µM | 3.73 µM | 62.8 µM | 3.24 µM | > 100 µM | 2.46 µM | 35.3 µM | 1.08 µM | 64.4 µM | 2.95 µM | 36 µM | 8.65 µM | 1.72 µM | 0.53 µM | 5.2 µM | 45.8 µM | 1.82 µM | > 100 µM | > 100 µM | 0.53 to 6.8 µM | 
3 | Cc1cc(C)c(/C=N/NC(=O)c2[nH]c3ccc(Br)cc3c2-c2ccccc2)[nH]1 [Derivative 3c, (E)-5-Bromo-N′-((3,5-dimethyl-1H-pyrrol-2-yl)methylene)-3-phenyl-1H-2-carbohydrazide] | 2.29 µM | 2.69 µM | 38.7 µM | 4.02 µM | > 100 µM | 2.96 µM | 35.4 µM | 2.68 µM | 43.9 µM | 3.21 µM | 35.7 µM | 19.3 µM | 2.52 µM | 2.47 µM | 3.55 µM | 40.7 µM | 2.31 µM | > 100 µM | > 100 µM | 1.77 to 8.25 µM | CC50 (SK-MEL-5; SK-MEL-5, melanoma): 28.8 µM
